What follows are molecules tested against T1, DCTPP1 (Homo sapiens, UniProt Q9H773) (assay: DCTPP1 inhibition assay (malachite green)). Conditions: 35 nM DCTPP1, 35 μM dCTP, 20 minutes at 22° C.; read-out: IC50.
T1 sequence (Q9H773 1-170): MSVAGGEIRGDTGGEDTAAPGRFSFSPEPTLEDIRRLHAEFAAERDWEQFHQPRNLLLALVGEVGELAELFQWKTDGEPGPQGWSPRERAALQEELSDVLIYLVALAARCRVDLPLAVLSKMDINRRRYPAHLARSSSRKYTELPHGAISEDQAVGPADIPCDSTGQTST
Type: biochemical
Procedure: DCTPP1 catalyzes the hydrolysis of dCTP to dCMP and PPi. By coupling the reaction to pyrophosphatase added in excess PPi is converted to Pi that can be detected by using the malachite green assay reagent. […] DCTPP1 diluted in assay buffer (100 mM Tris-acetate, 100 mM KCl, 10 mM magnesium acetate, 1 mM DTT and 0.005% Tween 20) fortified with E. coli pyrophosphatase (0.2 U/mL) is added to a final concentration of 35 nM. dCTP diluted in assay buffer is added to a final concentration of 35 μM. The reaction mixture is incubated with shaking for 20 minutes at 22° C. To 100 μl reaction mixture is added […] Malachite green assay reagent (0.095% Malachite green in 17% H2SO4, 1.5% Ammonium molybdate, 0.17% Tween 20) added followed by incubation with shaking for 15 minutes at 22° C. The absorbance of the assay plate is read at 630 nm using a SpectraMax plate reader (Molecular Devices).
Work on `Cc1nc2c([N+](=O)[O-])c(Cl)c(Cl)cc2n1S(=O)(=O)c1ccccc1` [Compound 2.2.17, 5,6-dichloro-2-methyl-4-nitro-1-(phenylsulfonyl)-1H-benzo[d]imidazole] yielded an IC50 of 74 nM. With `O=[N+]([O-])c1cccc2c1nc(C(F)(F)F)n2Cc1ccc(B(O)O)cc1` [Compound 2.2.8, (4-((4-nitro-2-(trifluoromethyl)-1H-benzo[d]imidazol-1-yl)methyl)phenyl)boronic acid] the IC50 was 206 nM. “5,6-dichloro-2-methyl-4-nitro-1-(4-(trifluoro-l4-boranyl)benzyl)-1H-benzo[d]imidazole [Compound 2.2.48]” was tested, and the IC50 was 39 nM. For `Cc1cc2c(nc(C)n2Cc2ccc(B(O)O)cc2)c([N+](=O)[O-])c1C` [Compound 2.2.60, (4-((2,5,6-trimethyl-4-nitro-1H-benzo[d]imidazol-1-yl)methyl)phenyl)boronic acid], the IC50 was 65 nM. Molecule `Cc1nc2c([N+](=O)[O-])c(Cl)c(Cl)cc2n1Cc1ccc(B(O)O)cc1` [Compound 2.2.44, (4-((5,6-dichloro-2-methyl-4-nitro-1H-benzo[d]imidazol-1-yl)methyl)phenyl)boronic acid] has an IC50 of 47 nM. With `Cc1nc2c([N+](=O)[O-])c(F)c(F)cc2n1Cc1ccccc1` [Compound 2.2.10, 1-benzyl-5,6-difluoro-2-methyl-4-nitro-1H-benzo[d]imidazole] the IC50 was 410 nM. With `COc1ccc(Cn2c(C)nc3c([N+](=O)[O-])c(Cl)c(Cl)cc32)cc1` [Compound 2.2.20, 5,6-dichloro-1-(4-methoxybenzyl)-2-methyl-4-nitro-1H-benzo[d]imidazole] the IC50 was 41 nM.

Same assay, conditions: 35 nM DCTPP1, 35 μM dCTP, 20 minutes at 22° C.; read-out: IC50 (nM), class
Work on `CC1(C)CC(C)(C)c2c1cc1c(cnn1Cc1ccc(B(O)O)cc1)c2[N+](=O)[O-]` [Compound 2.2.64] yielded an IC50 of no less than 1000 nM. Molecule `COc1ccc(Cn2c(-c3ccccc3)nc3cccc([N+](=O)[O-])c32)cc1` [Compound 2.3.3, 1-(4-methoxybenzyl)-7-nitro-2-phenyl-1H-benzo[d]imidazole] has an IC50 of no less than 1000 nM. Molecule `Cc1nc2c([N+](=O)[O-])c(Cl)c(Cl)cc2n1Cc1ccccc1` [Compound 2.2.19, 1-benzyl-5,6-dichloro-2-methyl-4-nitro-1H-benzo[d]imidazole] has an IC50 of less than 100 nM. For `Cc1cc2c(nc(C)n2Cc2cc3c(cc2Cl)OCO3)c([N+](=O)[O-])c1C` [Compound 2.2.53, 1-((6-chlorobenzo[d][1,3]dioxol-5-yl)methyl)-2,5,6-trimethyl-4-nitro-1H-benzo[d]imidazole], the IC50 was no less than 1000 nM. In the case of `C=CC(=O)Nc1ccc(Cn2c(C)nc3c([N+](=O)[O-])c(Cl)c(Cl)cc32)cc1` [Compound 2.2.32, N-(4-((5,6-dichloro-2-methyl-4-nitro-1H-benzo[d]imidazol-1-yl)methyl)phenyl)acrylamide], the IC50 is reported as less than 100 nM. With `Cc1nc2c([N+](=O)[O-])c(Cl)c(Cl)cc2n1Cc1ccc(C=NO)cc1` [Compound 2.2.28, 4-((5,6-dichloro-2-methyl-4-nitro-1H-benzo[d]imidazol-1-yl)methyl)benzaldehyde oxime] the IC50 was less than 100 nM. In the case of `Cc1nc2c([N+](=O)[O-])c(Cl)c(Cl)cc2n1Cc1ccc(O)cc1` [Compound 2.2.25, 4-((5,6-dichloro-2-methyl-4-nitro-1H-benzo[d]imidazol-1-yl)methyl)phenol], the IC50 is reported as less than 100 nM. For `COCc1nc2c([N+](=O)[O-])cccc2n1Cc1ccc(OC)cc1` [Compound 2.2.6, 1-(4-methoxybenzyl)-2-(methoxymethyl)-4-nitro-1H-benzo[d]imidazole], the IC50 was no less than 1000 nM. `Cc1nc2c([N+](=O)[O-])c(Cl)c(Cl)cc2n1S(=O)(=O)c1ccccc1` [Compound 2.2.17, 5,6-dichloro-2-methyl-4-nitro-1-(phenylsulfonyl)-1H-benzo[d]imidazole] showed an IC50 of less than 100 nM. `COC(=O)c1ccc(Cn2c(C)nc3c([N+](=O)[O-])c(Cl)c(Cl)cc32)cc1` [Compound 2.2.38, methyl 4-((5,6-dichloro-2-methyl-4-nitro-1H-benzo[d]imidazol-1-yl)methyl)benzoate] gave an IC50 of 100 to 500 nM. Molecule `Cc1cc2c(nc(C)n2Cc2ccc(F)cc2)c([N+](=O)[O-])c1C` [Compound 2.2.56, 1-(4-fluorobenzyl)-2,5,6-trimethyl-4-nitro-1H-benzo[d]imidazole] has an IC50 of 100 to 500 nM. In the case of `O=[N+]([O-])c1cccc2c1nc(C(F)(F)F)n2Cc1ccc(B(O)O)cc1` [Compound 2.2.8, (4-((4-nitro-2-(trifluoromethyl)-1H-benzo[d]imidazol-1-yl)methyl)phenyl)boronic acid], the IC50 is reported as 100 to 500 nM. Molecule `Cc1nc2c([N+](=O)[O-])c(Cl)c(Cl)cc2n1Cc1ccc(-n2cncn2)cc1` [Compound 2.2.35, 1-(4-(1H-1,2,4-triazol-1-yl)benzyl)-5,6-dichloro-2-methyl-4-nitro-1H-benzo[d]imidazole] has an IC50 of 500 to 1000 nM. “5,6-dichloro-2-methyl-4-nitro-1-(4-(trifluoro-l4-boranyl)benzyl)-1H-benzo[d]imidazole [Compound 2.2.48]” gave an IC50 of less than 100 nM. `Cc1nc2c([N+](=O)[O-])c(F)c(F)cc2n1Cc1ccc(-n2cncn2)cc1` [Compound 2.2.13, 1-(4-(1H-1,2,4-triazol-1-yl)benzyl)-5,6-difluoro-2-methyl-4-nitro-1H-benzo[d]imidazole] was tested, and the IC50 was no less than 1000 nM. In the case of `Cc1nc2c([N+](=O)[O-])c(F)c(F)cc2n1Cc1ccc(B(O)O)cc1` [Compound 2.2.15, (4-((5,6-difluoro-2-methyl-4-nitro-1H-benzo[d]imidazol-1-yl)methyl)phenyl)boronic acid], the IC50 is reported as 500 to 1000 nM. For `COc1ccc(Cn2c(C)nc3c([N+](=O)[O-])c(C)c(C)cc32)cc1` [Compound 2.2.54, 1-(4-methoxybenzyl)-2,5,6-trimethyl-4-nitro-1H-benzo[d]imidazole], the IC50 was less than 100 nM. `Cc1nc2c([N+](=O)[O-])c(Cl)c(Cl)cc2n1Cc1ccc(Cl)nc1` [Compound 2.2.43, 5,6-dichloro-1-((6-chloropyridin-3-yl)methyl)-2-methyl-4-nitro-1H-benzo[d]imidazole] gave an IC50 of 100 to 500 nM. With `Cc1nc2c([N+](=O)[O-])c(Cl)c(Cl)cc2n1Cc1ccc(S(C)(=O)=O)cc1` [Compound 2.2.41, 5,6-dichloro-2-methyl-1-(4-(methylsulfonyl)benzyl)-4-nitro-1H-benzo[d]imidazole] the IC50 was 100 to 500 nM. `Cc1cc2c(nc(C)n2Cc2ccc(Cl)cc2)c([N+](=O)[O-])c1C` [Compound 2.2.55, 1-(4-chlorobenzyl)-2,5,6-trimethyl-4-nitro-1H-benzo[d]imidazole] gave an IC50 of less than 100 nM. For `COc1ccc(Cn2c(C(F)(F)F)nc3c([N+](=O)[O-])cccc32)cc1` [Compound 2.2.4, 1-(4-methoxybenzyl)-4-nitro-2-(trifluoromethyl)-1H-benzo[d]imidazole], the IC50 was no less than 1000 nM. `Cc1cc2c(nc(C)n2C(C)c2ccccc2)c([N+](=O)[O-])c1C` (stereo not drawn) [Compound 2.2.59, 2,5,6-trimethyl-4-nitro-1-(1-phenylethyl)-1H-benzo[d]imidazole] was tested, and the IC50 was 100 to 500 nM. For `Cc1cc2c(nc(C(F)(F)F)n2Cc2ccc(B(O)O)cc2)c([N+](=O)[O-])c1C` [Compound 2.2.61, (4-((5,6-dimethyl-4-nitro-2-(trifluoromethyl)-1H-benzo[d]imidazol-1-yl)methyl)phenyl)boronic acid], the IC50 was less than 100 nM. With `Cc1nc2c([N+](=O)[O-])c(Cl)c(Cl)cc2n1Cc1ccccc1B(O)O` [Compound 2.2.46, (2-((5,6-dichloro-2-methyl-4-nitro-1H-benzo[d]imidazol-1-yl)methyl)phenyl)boronic acid] the IC50 was less than 100 nM. For `Cc1nc2c([N+](=O)[O-])c(Cl)c(Cl)cc2n1Cc1ccc(C(N)=O)cc1` [Compound 2.2.39, 4-((5,6-dichloro-2-methyl-4-nitro-1H-benzo[d]imidazol-1-yl)methyl)benzamide], the IC50 was less than 100 nM. With `Cc1nc2c([N+](=O)[O-])c(Cl)c(Cl)cc2n1Cc1ccc(C#N)cc1` [Compound 2.2.40, 4-((5,6-dichloro-2-methyl-4-nitro-1H-benzo[d]imidazol-1-yl)methyl)benzonitrile] the IC50 was 100 to 500 nM. `Cc1nc2c([N+](=O)[O-])c(Cl)c(Cl)cc2n1Cc1ccc(C(=O)O)cc1` [Compound 2.2.37, 4-((5,6-dichloro-2-methyl-4-nitro-1H-benzo[d]imidazol-1-yl)methyl)benzoic acid] showed an IC50 of less than 100 nM. `COc1ccc(Cn2c(C)nc3c([N+](=O)[O-])cccc32)cc1` [Compound 2.2.1, 1-(4-methoxybenzyl)-2-methyl-4-nitro-1H-benzo[d]imidazole] gave an IC50 of no less than 1000 nM. `Cc1nc2c([N+](=O)[O-])c(Cl)c(Cl)cc2n1C(=O)c1ccccc1` [Compound 2.2.18, (5,6-dichloro-2-methyl-4-nitro-1H-benzo[d]imidazol-1-yl)(phenyl)methanone] was tested, and the IC50 was 100 to 500 nM. “1-(4-methoxybenzyl)-4-nitro-1H-benzo[d]imidazole [Compound 2.2.62]” showed an IC50 of no less than 1000 nM. Work on `COc1ccc(Cn2c(OC)nc3cccc([N+](=O)[O-])c32)cc1` [Compound 2.3.2, 2-methoxy-1-(4-methoxybenzyl)-7-nitro-1H-benzo[d]imidazole] yielded an IC50 of no less than 1000 nM. Molecule `COc1cc(Cn2c(C)nc3c([N+](=O)[O-])c(C)c(C)cc32)cc(OC)c1OC` [Compound 2.2.52, 2,5,6-trimethyl-4-nitro-1-(3,4,5-trimethoxybenzyl)-1H-benzo[d]imidazole] has an IC50 of no less than 1000 nM. For `Cc1nc2c([N+](=O)[O-])c(Cl)c(Cl)cc2n1Cc1cccc(B(O)O)c1` [Compound 2.2.47, (3-((5,6-dichloro-2-methyl-4-nitro-1H-benzo[d]imidazol-1-yl)methyl)phenyl)boronic acid], the IC50 was less than 100 nM. Molecule `Cc1ccc(Cn2c(C)nc3c([N+](=O)[O-])c(Cl)c(Cl)cc32)cc1` [Compound 2.2.26, 5,6-dichloro-2-methyl-1-(4-methylbenzyl)-4-nitro-1H-benzo[d]imidazole] has an IC50 of less than 100 nM. `COc1ccc(Cn2c(C)nc3c([N+](=O)[O-])c(Cl)c(Cl)cc32)cc1` [Compound 2.2.20, 5,6-dichloro-1-(4-methoxybenzyl)-2-methyl-4-nitro-1H-benzo[d]imidazole] was tested, and the IC50 was less than 100 nM.

From patent US20170305893A1 (Thomas Helledays Stiftelse for Medicinsk Forskning, priority 2014, published 2017)
